{"source": "a melting point compilation (Tetko et al.; mined from patent text by program, amines drawn as free bases though some values may be those of a salt)"}
{"units": {"melting point": "°C"}}
{"smiles": "CC(C)(C)CC(C)(C)NC(=O)CCON(Cc1ccccc1)Cc1ccccc1", "melting point": "96 to 98"}
{"smiles": "O=CNNc1ccc(NS(=O)(=O)c2cccc([N+](=O)[O-])c2)cc1", "melting point": "188 to 191"}
{"smiles": "Cn1ncc2c(c1=O)SCCNC2Cc1ccccc1", "note": "(configuration not stated)", "melting point": "108 to 109"}
{"smiles": "CC(C(=O)Nc1cccc2c1C(=O)c1c(NC(=O)C(C)N(C)C)cccc1C2=O)N(C)C", "note": "(configuration not stated)", "melting point": "116 to 117"}
{"smiles": "N#Cc1cnn(C2CCCCC2)c1N", "melting point": "99 to 103"}
{"smiles": "C[C@@H](n1cnc2cc(-c3ccc(N)cc3)sc2c1=O)[C@](O)(Cn1cncn1)c1ccc(F)cc1F", "melting point": "184 to 186"}
{"smiles": "CCOCc1nnc2c(C(F)(F)F)c(Cl)ccn12", "melting point": 104}
{"smiles": "CCOC(=O)c1c(C)cc2nc(CSC(C)=O)n(-c3ccccc3Cl)c(=O)c2c1C", "melting point": "103 to 105"}
{"smiles": "Cc1nccn1CC1CCc2c(c3ccccc3n2C)C1NO", "note": "(configuration not stated)", "melting point": "140 to 144"}
{"smiles": "CNc1cccc(-c2csc(NC(=N)N)n2)c1", "melting point": "198 to 200"}
{"smiles": "CCOC(=O)c1ncoc1-c1cnc(Cl)c(Cl)c1", "melting point": "95 to 98"}
{"smiles": "Cc1c(NC(=O)c2ccc(CC(=O)CC(C)C)cc2)ccc2cc(CN3CCCC3)cnc12", "melting point": 153}
{"smiles": "CN1C[C@H](CCN2CCC(O)(c3ccc(Cl)cc3)CC2)C=C2c3cccc4[nH]cc(c34)C[C@H]21", "melting point": "154 to 157"}
{"smiles": "CC(C)OC(=O)Nc1cc(-c2ccnc3c(C(=O)c4cccs4)cnn23)ccc1N(C)C", "melting point": "164 to 165"}
{"smiles": "CN(C)C1CC2=CNC=C3C=C(C=O)OCC1=C32", "note": "(configuration not stated)", "melting point": "175 to 176"}
{"smiles": "COc1ccc([C@@H]2CN(C)CC[C@@H]2NC(=O)c2cccc(C(F)(F)F)c2)cc1OC", "note": "(relative stereo)", "melting point": "122 to 124"}
{"smiles": "CC(C)(Oc1ccc(Cl)cc1)c1ccnc2ncnn12", "melting point": "132 to 135"}
{"smiles": "Cc1ccc2c(c1)CCn1ccnc1C2=C1CCN(CCc2ccc(O)cc2)CC1", "melting point": 176}
{"smiles": "CS(=O)(=O)N(c1cccc(CN2CCN(C(c3ccccc3)c3ccccc3)CC2)n1)S(C)(=O)=O", "melting point": "167 to 169"}
{"smiles": "Cc1nnc(C=Cc2ccccc2OC[C@@H](O)CN2CCC(c3ccc4ccccc4c3)CC2)o1", "melting point": "105 to 106"}
{"smiles": "CCC(Oc1cc(Cl)cc(Cl)c1Cl)C(=O)O", "note": "(configuration not stated)", "melting point": "106 to 114"}
{"smiles": "CN(Cc1ccc(NC(=O)C2=Cc3cc(Br)ccc3N(C=O)CC2)cc1)C1CCOCC1", "melting point": "173 to 175"}
{"smiles": "CC(=O)N1C(=O)C(C(=O)c2cccs2)c2cc(Cl)ccc21", "note": "(configuration not stated)", "melting point": "168 to 170"}
{"smiles": "CC(C)(O)c1ccc(CC(=O)Nc2cccnc2Oc2cccnc2)cc1", "melting point": "122 to 124"}
{"smiles": "CCONC(=O)c1cccc(-c2nc3ccccc3c(=O)o2)c1", "melting point": "179 to 183"}
{"smiles": "O=C(O)COc1nc2ccccc2s1", "melting point": "168 to 170"}
{"smiles": "COc1ccc(COc2ccc(NC(C)=O)cc2C(=O)C=Cc2ccc(OCc3ccccc3)c(OCc3ccccc3)c2)cc1", "melting point": "145 to 146"}
{"smiles": "COc1ccc(C(O)c2cc(O)ccc2OC)cc1", "note": "(configuration not stated)", "melting point": "62 to 68"}
{"smiles": "CC(=O)NCC1CC(c2ccc(C3=CCN(C(=O)CO)CC3)cc2)=NO1", "note": "(configuration not stated)", "melting point": "115 to 118"}
{"smiles": "COc1ccccc1Cc1c(Cl)ncnc1Cl", "melting point": "95 to 96"}
{"smiles": "COc1cc(C=CC(=O)OC2CC3CC(OC(=O)C=Cc4cc(OC)c(OC)c(OC)c4)C(C2)N3C)cc(OC)c1OC", "note": "(configuration not stated)", "melting point": "53 to 57"}
{"smiles": "CN1CCN(CC2CCCCN2CC(=O)N2c3ccccc3C(=O)Nc3cccnc32)CC1", "note": "(configuration not stated)", "melting point": "203 to 205"}
{"smiles": "CCCN(CCC)C(=O)CNc1nc(-c2ccccc2)nc(C)c1C", "melting point": "79 to 80"}
{"smiles": "ON=C(c1ccc(CN2CCOCC2)cc1)c1cccc2nc(N[C@@H]3CCc4ccccc43)ccc12", "melting point": 167}
{"smiles": "NC(=O)c1ccccc1NC(=O)c1cccnc1", "melting point": "220 to 222"}
{"smiles": "CCOC(=O)c1nnc(N2CCN(c3ccc(N4CC(CNC(C)=O)OC4=O)cc3)CC2F)s1", "note": "(configuration not stated)", "melting point": "228 to 230"}
{"smiles": "CC1(C)Oc2ccc(Br)cc2C(n2ccccc2=O)=C1CN(O)C(N)=O", "melting point": 216}
{"smiles": "Oc1ccc(-c2cc(O)ccc2-c2cc3cc(O)ccc3o2)cc1", "melting point": "238 to 239"}
{"smiles": "CC(C)(CO)NC1=NS(=O)(=O)c2sc(Cl)cc2N1", "melting point": "224 to 226"}
{"smiles": "Cc1nnc(-c2ccc3occ(-c4ccc(OS(C)(=O)=O)cc4)c3c2)o1", "melting point": "139 to 140"}
{"smiles": "C=C1c2ccccc2CC(NO)c2ccccc21", "note": "(configuration not stated)", "melting point": "145 to 147"}
{"smiles": "C=CCN(CC=C)c1ccc(C=Cc2ccc(S(C)(=O)=O)cc2)cc1", "melting point": "101 to 102"}
{"smiles": "O=C(Nc1ccccc1O)c1ccc(CS(=O)(=O)c2ccc(O)cc2)cc1", "melting point": 250}
{"smiles": "CC1(C)C(=O)Nc2ccc(-c3cc(F)cc(C#N)c3)cc21", "melting point": "231 to 232"}
{"smiles": "Cc1oc(-c2ccccc2)nc1COc1ccc2cc(CCCCc3nnn[nH]3)oc2c1", "melting point": "114 to 115"}
{"smiles": "C#CCN(Cc1ccc2nc[nH]c(=O)c2c1)c1ccc(C(C)=O)cc1", "melting point": "197 to 199"}
{"smiles": "COc1ccc(C2(Oc3c(F)c(F)c(F)c(F)c3F)CCN(C)CC2)cc1", "melting point": "70 to 80"}
{"smiles": "CC(=O)c1ccc(OCCc2nc(-c3ccccc3)oc2C)cc1", "melting point": "70 to 71"}
{"smiles": "CCN(CC)c1ccc(S(=O)(=O)NCCCCC(=O)O)cc1", "melting point": "106 to 108"}
{"smiles": "CCC1(NC(=O)C(Br)CCl)COCOC1", "note": "(configuration not stated)", "melting point": "95 to 109"}
{"smiles": "O=C(c1ccc(Cl)cc1)c1ccc(N2N=CCNC2=O)cc1Cl", "melting point": "158 to 159"}
{"smiles": "CC(C)N1C(=O)c2cnc(-c3ccccc3)nc2N(C(=O)CN2CCN(C)CC2)c2ccccc21", "melting point": "168 to 170"}
{"smiles": "O=C(CO)Cc1ccccc1", "melting point": "42 to 43"}
{"smiles": "O=c1c(O)c(CCCCCO)oc2ccccc12", "melting point": "111 to 112"}
{"smiles": "Cc1nc(-c2c(C)c(C#N)c3nc(C4CC4)oc3c2N2CC[C@H](N(C)C)C2)cs1", "melting point": "167 to 168"}
{"smiles": "CCCCc1nc(C)c(CC(=S)N2CCCC2)c(=O)n1Cc1ccc(-c2ccccc2-c2nnn[nH]2)cc1", "melting point": "94.4 to 97.3"}
{"smiles": "CC(O)(CO)c1cccc(OCc2ccc3ccccc3c2)c1", "note": "(single isomer, unassigned; (-))", "melting point": "104 to 106"}
{"smiles": "CC(C)n1nc(-c2sc(NC(=O)c3ccc(CN(C)C)cc3)nc2-c2ccccc2)ccc1=O", "melting point": "246 to 248"}
{"smiles": "Cc1cnc(NS(C)(=O)=O)cc1C(c1cc(F)ccc1F)S(=O)(=O)c1ccc(Cl)cc1", "note": "(configuration not stated)", "melting point": "214 to 217"}
{"smiles": "CCC(C)(C)Nc1c(-c2ccc(OC)cc2)c(=O)c1=O", "melting point": "133 to 135"}
{"smiles": "COc1cc2c(cc1OC)CN(c1nc(N)nc(Cl)n1)CC2", "melting point": "196 to 197"}
{"smiles": "OCCCN1CCC(C(O)(c2ccc(F)cc2)c2ccc(F)cc2)CC1", "melting point": "155 to 157"}
{"smiles": "O=C(c1ccc(-c2cnc3c(c2)N(Cc2cc(Cl)ccc2Cl)C(=O)CN3)cc1)N1CCC(N2CCCC2)CC1", "melting point": "> 200"}
{"smiles": "CCCCCCCCCCCCCCCc1cc2cccc(C(=O)O)c2[nH]1", "melting point": "93 to 99"}
{"smiles": "CCCC1CC(=O)C(C(=O)NS(=O)(=O)c2ccc(C)cc2)C(=O)C1", "note": "(configuration not stated)", "melting point": "132 to 134"}
{"smiles": "CSc1ccc(-c2coc3ccc(-c4nnc(N)o4)cc23)cc1Cl", "melting point": "232 to 233"}
{"smiles": "Cc1c(-c2ccc3sc(=O)[nH]c3c2)nc2ncccn12", "melting point": "> 290"}
{"smiles": "CS(=O)(=O)c1ccc(-c2nc(C(F)(F)F)nc(Cl)c2-c2ccc(S(=O)(=O)Cl)cc2)cc1", "melting point": "207 to 210"}
{"smiles": "CCn1ccnc1S(N)(=O)=O", "melting point": "123 to 125"}
{"smiles": "Cc1cc2c(cc1NC(=O)c1cccc(I)c1C(=O)NC(C)C)OC(F)(F)C2(O)C(F)(F)F", "note": "(configuration not stated)", "melting point": "144 to 146"}
{"smiles": "O=c1c2ccccc2ncn1C1CCN(CCC(CC(F)(F)F)c2ccccc2)CC1", "note": "(configuration not stated)", "melting point": "128 to 129"}
{"smiles": "CNC(C)C1CCN(c2nc3c(cc2F)c(=O)c(C(=O)O)cn3C2CC2)C1", "note": "(configuration not stated)", "melting point": "199 to 202"}
{"smiles": "N#CNC(=S)Nc1cccc([N+](=O)[O-])c1", "melting point": "> 210"}
{"smiles": "COCc1nc(C(C)(C)O)c(C(=O)O)n1Cc1ccc(-c2ccccc2-c2nnn[nH]2)cc1", "melting point": 187}
{"smiles": "COc1ccc(Cn2c(=O)n(C3OC(CO)C(O)C3O)c3nc(N)[nH]c(=O)c32)cc1", "note": "(configuration not stated)", "melting point": "> 230"}
{"smiles": "CC(C(O)c1ccc2[nH]c(=O)[nH]c2c1)N1CCC(Cc2ccccc2)CC1", "note": "(configuration not stated)", "melting point": "221 to 222"}
{"smiles": "COc1ccc(CC=[N+]([O-])C(C)(C)C)cc1", "melting point": "90 to 91"}
{"smiles": "COc1cc(OC)c2c(=O)[nH]c(-c3ccc(OC4CCN(C(=O)N(C)C)CC4)cc3)nc2c1", "melting point": "248 to 249"}
{"smiles": "CC(CC(=O)c1cccc(Cl)c1)C(=O)O", "note": "(configuration not stated)", "melting point": "100 to 102"}
{"smiles": "CCOCc1nc(C(C)(C)O)c(C(=O)O)n1Cc1ccc(-c2ccccc2C(=O)O)cc1", "melting point": "166 to 169"}
{"smiles": "COc1ccc2oc(C(N)=O)c(OCc3ccccc3)c2c1", "melting point": "70 to 72"}
{"smiles": "Cc1ccc(S(N)(=O)=O)cc1Br", "melting point": 156}
{"smiles": "COC(=O)N1Cc2c(-c3ccc(F)cc3)ncn2-c2ccccc21", "melting point": "156 to 160"}
{"smiles": "CC(C)(CCCc1cccnc1)NC(=O)Cc1ccccc1[N+](=O)[O-]", "melting point": "117 to 118"}
{"smiles": "CC(=O)OCC(O)(COC(C)=O)c1ccc(F)cc1F", "melting point": "70.5 to 71.5"}
{"smiles": "CN(C(=O)c1ccccc1OCC(=O)O)c1ccccc1", "melting point": 148}
{"smiles": "COc1cc(OCc2cn(-c3ccc(C(F)(F)F)cn3)nc2C)ccc1CCC(=O)O", "melting point": "158 to 159"}
{"smiles": "COc1cccc(S(=O)(=O)N(C)C)c1C#N", "melting point": "121 to 128"}
{"smiles": "O=C1N(c2c(Cl)cccc2Cl)Cc2cnc(NCC3CCCCC3)nc2N1c1ccccc1", "melting point": "229 to 233"}
{"smiles": "C=CCNC(=NCCSCc1[nH]cnc1C)NC#N", "melting point": "113 to 114"}
{"smiles": "Oc1ccc2oc(-c3cc(OCc4ccccc4)c(O)cc3-c3ccccc3)cc2c1", "melting point": "186 to 187"}
{"smiles": "COc1cc2cc([N+](=O)[O-])ccc2c([N+](=O)[O-])c1O", "melting point": "239 to 242"}
{"smiles": "CCN(CC)CCNc1cc(Cl)cc(NCCN(CC)CC)c1[N+](=O)[O-]", "melting point": 90}
{"smiles": "O=[N+]([O-])c1cc(C(F)(F)F)cc([N+](=O)[O-])c1Nc1c(Cl)cncc1Cl", "melting point": "138 to 140"}
{"smiles": "CC(C)(C)C(=O)c1c[nH]c2ncc(-c3cccc(NS(=O)(=O)c4ccc(N)cc4)c3)nc12", "melting point": "264 to 266"}
{"smiles": "COc1ccc(N(CCCC(=O)O)C(=O)C(C)N(C(=O)c2cccc(C(F)(F)F)c2)c2ccc(OC)cc2)cc1", "note": "(configuration not stated)", "melting point": "119 to 121"}
{"smiles": "CCn1c2ccccc2c2cc(OC)c(C(=O)O)cc21", "melting point": "130 to 147"}
